Measured values published in patent publication US20260144783A1, “COMPOSITION FOR PREVENTING OR TREATING PERIPHERAL NEUROPATHY, CONTAINING ISOQUINOLINE DERIVATIVE AS ACTIVE INGREDIENT” (ALTMEDICAL CO., LTD., priority 2022, published 2026).

Columns and labels:
[1] = system: Drosophila expressing shRap9 in C4da sensory neurons; test: heat probe assay, Rap9 suppressed; format: in vivo; details: Rap9 expression suppressed; paclitaxel 20 μM and CD1-012 1 mM
Experimental: Subsequently, to understand the molecular mechanism underlying the therapeutic effect of CD1-012 on chemotherapy-induced peripheral neuropathy, the therapeutic effect of CD1-012 was examined after suppressing the expression of ULK1 or Rap9, which are essential genes in the recently identified alternative mitophagy pathway. To this end, a heat probe assay was performed using a 40° C. thermal probe after co-treating paclitaxel (20 μM) and CD1-012 (1 mM) in Drosophila expressing shULK1 or shRap9 in C4da sensory neurons, as well as in control Drosophila (wild-type). As a result, in the control group, the peripheral neuropathy symptoms (reduction in withdrawal latency) induced by paclitaxel were recovered by CD1-012 treatment.

[2] = system: Drosophila expressing shATG7 in C4da sensory neurons; test: heat probe assay, ATG7 suppressed; format: in vivo; details: ATG7 expression suppressed; paclitaxel 20 μM and CD1-012 1 mM, 40° C. probe
Experimental: (§1) In this example, an experiment was conducted to verify the therapeutic mechanism of the compound according to the present invention on peripheral neuropathy, particularly chemotherapy-induced peripheral neuropathy. To this end, the therapeutic effect of CD1-012 on peripheral neuropathy was evaluated using animal models in which the expression of ATG5 or ATG7, essential genes in the canonical mitophagy pathway, the most representative mitophagy regulatory pathway, was suppressed. Specifically, paclitaxel (20 μM) and CD1-012 (1 mM) were co-administered to Drosophila expressing shATG7 or shATG5 in C4da sensory neurons, as well as to control flies (wild-type), and a heat probe assay was conducted using a 40° C. thermal probe.

[3] = system: chemotherapy-induced peripheral neuropathy mouse model; test: nerve distribution in the footpad (IENFs), peripheral neuropathy mouse model; format: in vivo; details: mice treated with CD1-012 and paclitaxel, FIG. 12B
[4] = system: BEAS-2B cell line, in which PINK1 was knocked down (shPINK1); test: mitophagy activity in PINK1 knockdown cell line (FACS); format: cell-based, human; details: CCCP 10 μM or CD1-012 15 μM, 18 hours
Experimental: In this example, it was confirmed whether the mitophagy activation function of the isoquinoline derivative according to the present invention is dependent on the PINK1-Parkin pathway. To this end, after a BEAS-2B cell line, in which PINK1 was knocked down using short hairpin RNA (shRNA), was treated with CCCP (10 μM) of Comparative Example 1 or CD1-012 (15 μM) for 18 hours, the mitophagy activity of each sample was analyzed using flow cytometry (FACS).

Drosophila larvae = test: larval size after treatment; format: in vivo; details: in vivo
Experimental: In addition, to evaluate whether the compound according to the present invention affects the growth of Drosophila, the size of larvae was measured after treatment with paclitaxel and CD1-012.

[5] = system: mitochondrial reactive oxygen species (ROS); test: MitoSOX assay; format: cell-based; details: CD1-012 10 μM or 15 μM, CCCP 10 μM, 24 hours
Experimental: It was confirmed whether the isoquinoline derivative according to the present invention induces mitochondrial dysfunction, similar to CCCP. To this end, the CD1-012 (10 μM or 15 μM) and CCCP (10 μM) were treated for 24 hours, and the mitochondrial membrane potential and mitochondrial reactive oxygen species (ROS) levels in each sample were analyzed. Mitochondrial membrane potential was analyzed using the TMRM (tetramethylrhodamine methyl ester) assay, and mitochondrial ROS levels were analyzed using the MitoSOX assay.

BEAS-2B cell line [6] = test: autophagy activity, Keima fluorescent protein, confocal microscope; format: cell-based, human; details: 15 μM 18 h, BEAS-2B expressing Keima, FIG. 4B
Experimental: (§2) It was confirmed whether CD1-012 synthesized in Example 1 specifically increases only mitophagy activity. To this end, the BEAS-2B cell line expressing mt-Keima was treated with CD1-012 (15 μM) or Comparative Example 1 (CCCP, 10 μM) for 18 hours, and mitophagy activity was analyzed using a confocal microscope. Additionally, to measure autophagy activity, the BEAS-2B cell line expressing Keima fluorescent protein was incubated in Hanks' balanced salt solution (HBSS) for 3 hours to induce a starvation condition (starv.), and the results were compared with samples treated with CD1-012 (15 μM) for 18 hours using a confocal microscope.

[7] = system: Drosophila expressing shATG5 in C4da sensory neurons; test: heat probe assay, ATG5 suppressed; format: in vivo; details: ATG5 expression suppressed; paclitaxel 20 μM and CD1-012 1 mM, 40° C. probe
Experimental: as §1

BEAS-2B cell line [8] = test: mitophagy activity, mt-Keima fluorescent protein (FACS, confocal microscope, mito-YFP); format: cell-based, human
Experimental: To analyze the mitophagy-promoting activity effect of the CD1-012 synthesized in the Example 1, the BEAS-2B cell line, which is a human normal lung cell line, was induced to express the mt-Keima fluorescent protein. Following this, the CD1-012 (15 μM) and the compound of Comparative Example 1, CCCP (10 μM), were treated for 24 hours. After the treatment, the mitophagy activity of each sample was measured, and the results were represented in FIGS. 1A to IC.
Specifically, FIG. 1A represents the analysis results using flow cytometry (FACS) (treatment of CD1-012 at 15 µM for 24 hours), FIG. 1B represents the analysis results using a confocal microscope (treatment of CD1-012 at 15 μM for 18 hours), and FIG. 1C represents the measurement results of the quantitative changes in the mitochondria using a fluorescent protein, mito-YFP, which includes a targeting sequence to transport protein to the mitochondria (treatment of CD1-012 at 20 μM for 24 hours).
It was confirmed whether CD1-012 synthesized in Example 1 promotes mitophagy activity in a concentration- and time-dependent manner. To this end, the CD1-012 was treated at various concentrations or at a fixed concentration (15 μM) for different treatment durations in the BEAS-2B cell line expressing mt-Keima, and mitophagy activity was measured using a flow cytometer.
as §2
To this end, the human normal lung cell line BEAS-2B, expressing mt-Keima fluorescent protein, was treated with CD1-012, Comparative Example 2 (palmatine), or Comparative Example 3 (berberine) at various concentrations, and the mitophagy-inducing activity of each sample was compared.

[9] = 15 μM, BEAS-2B mt-Keima, FIG. 3B

## Oc1cc2c(cc1O)-c1cc3ccc(O)c(O)c3c[n+]1CC2 [CD1-012, 2,3,9,10-tetrahydroxy-5,6-dihydroisoquinolino[3,2-a]isoquinolin-7-ium bromide]
[1]
  therapeutic effect on paclitaxel-induced peripheral neuropathy (withdrawal latency): completely abolished
[2]
  therapeutic effect on chemotherapy-induced peripheral neuropathy (withdrawal latency): similarly observed
[3]
  number of peripheral nerves (intraepidermal nerve fibers: IENFs) in the footpad: recovery to normal levels
[4]
  mitophagy activation in PINK1 knockdown cell line (shPINK1) compared to control: did not show a significant difference
Drosophila larvae
  reduction in larval size compared to the untreated control group: ~10%
[5]
  mitochondrial ROS levels: no increase
BEAS-2B cell line [6]
  autophagy activity compared to the untreated control group: no significant difference
[7]
  therapeutic effect on chemotherapy-induced peripheral neuropathy (withdrawal latency): similarly observed
BEAS-2B cell line [8]; 15 μM 24 h, CCCP 10 μM
  mitophagy activity compared with CCCP-treated sample (FIG. 1A, FACS): increased as significantly as
BEAS-2B cell line [8]; [9]
  treatment time after which mitophagy activity began to significantly increase: 3 h
  treatment time at which mitophagy activity reached its maximum level: 18 h
BEAS-2B cell line [8]; BEAS-2B mt-Keima, FIG. 5
  concentration at which mitophagy activity reached its maximum (comparable level): 10 µM
  mitophagy-inducing activity relative to berberine: approximately 8 times
  mitophagy-inducing activity relative to palmatine: approximately 40 times
BEAS-2B cell line [8]; BEAS-2B mt-Keima, flow cytometer, FIG. 3A
  concentration at which mitophagy activity began to significantly increase compared to untreated control: ≥ 7.5 µM
BEAS-2B cell line [8]; BEAS-2B mt-Keima, CD1-012 15 μM 24 h FACS, 15 μM 18 h confocal, 20 μM 24 h mito-YFP
  mitophagy activity compared to the untreated control group (Con): significant increase
BEAS-2B cell line [8]; up to the maximum treatment concentration of 17.5 μM, FIG. 3A
  mitophagy activity, concentration dependence: continued to increase in a concentration-dependent manner
